Assay results from ChEMBL document CHEMBL1201862, “PubChem BioAssay data set” (2004).
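Five concentrations, 48 hours, 96-well plates. GI50 marks 50% less growth.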 Active and inactive are the calls of the source. Rule as the data show it: active = GI50 up to about 1.1 µM and inactive = higher.

Experiments:
Assay in all cases: NCI-60 cell line screen, 48 h
LOX IMVI = test system: LOX IMVI
RXF 393 = test system: RXF 393
EKVX = test system: EKVX
NCI-H226 = test system: NCI-H226
A498 = test system: A498
UACC-62 = test system: UACC-62
IGROV-1 = test system: IGROV-1
SF-295 = test system: SF-295
OVCAR-5 = test system: OVCAR-5
UO-31 = test system: UO-31
SNB-19 = test system: SNB-19
TK-10 = test system: TK-10
SN12C = test system: SN12C
NCI/ADR-RES = test system: NCI/ADR-RES
SNB-75 = test system: SNB-75
MDA-MB-435 = test system: MDA-MB-435
KM12 = test system: KM12
U-251 = test system: U-251
Hs-578T = test system: Hs-578T

Measured: GI50

COc1cccc(CSCC(=O)O)c1
inactive: LOX IMVI > 100 µM | RXF 393 > 100 µM | EKVX > 100 µM | NCI-H226 > 100 µM | A498 > 100 µM | UACC-62 > 100 µM | IGROV-1 > 100 µM | SF-295 > 100 µM | OVCAR-5 > 100 µM | UO-31 > 100 µM | SNB-19 > 100 µM | TK-10 > 100 µM | SN12C > 100 µM | NCI/ADR-RES > 100 µM | SNB-75 > 100 µM | MDA-MB-435 > 100 µM | KM12 > 100 µM | U-251 > 100 µM | Hs-578T > 100 µM

Cc1ccc(Nc2[nH]c(=O)[nH]c(=O)c2C)cc1Cl
inactive: LOX IMVI > 100 µM | RXF 393 > 100 µM | EKVX 11 µM | NCI-H226 > 100 µM | A498 > 100 µM | UACC-62 59.3 µM | IGROV-1 78.5 µM | SF-295 26.2 µM | OVCAR-5 > 100 µM | UO-31 30.4 µM | SNB-19 > 100 µM | TK-10 91.8 µM | SN12C > 100 µM | NCI/ADR-RES > 100 µM | SNB-75 29.8 µM | MDA-MB-435 > 100 µM | KM12 > 100 µM | U-251 > 100 µM | Hs-578T 70 µM

O=c1ssc(Cl)c1Cl
inactive: LOX IMVI > 10 µM | RXF 393 > 10 µM | EKVX > 10 µM | NCI-H226 > 10 µM | A498 > 10 µM | UACC-62 > 10 µM | IGROV-1 > 10 µM | SF-295 > 10 µM | OVCAR-5 > 10 µM | UO-31 > 4.93 µM | SNB-19 > 10 µM | TK-10 > 10 µM | SN12C > 10 µM | NCI/ADR-RES > 10 µM | SNB-75 > 10 µM | MDA-MB-435 > 10 µM | KM12 > 10 µM | U-251 > 10 µM | Hs-578T > 10 µM

O=c1[nH]nc(Cc2ccc(Cl)cc2)n1/N=C/c1ccc([N+](=O)[O-])o1
inactive: LOX IMVI 1.2 µM | RXF 393 1.56 µM | EKVX 4.63 µM | NCI-H226 9.18 µM | A498 5.7 µM | UACC-62 2.87 µM | IGROV-1 2.05 µM | SF-295 2.77 µM | OVCAR-5 6.85 µM | UO-31 2.16 µM | SNB-19 3.98 µM | TK-10 4.27 µM | SN12C 3.78 µM | NCI/ADR-RES 3.16 µM | SNB-75 7.13 µM | MDA-MB-435 2.4 µM | KM12 2.03 µM | U-251 4.12 µM | Hs-578T 2.25 µM

O=C1c2ccccc2-c2c1c1ccccc1c(=O)n2-c1cccnc1
inactive: LOX IMVI 32.1 µM | RXF 393 > 100 µM | EKVX > 44.2 µM | NCI-H226 61.5 µM | A498 > 10 µM | UACC-62 32 µM | IGROV-1 34.2 µM | SF-295 27 µM | OVCAR-5 > 100 µM | UO-31 > 48.8 µM | SNB-19 24.6 µM | TK-10 > 62.1 µM | SN12C > 52.2 µM | NCI/ADR-RES 45.8 µM | SNB-75 49.1 µM | MDA-MB-435 > 100 µM | KM12 > 100 µM | U-251 22.7 µM | Hs-578T 37 µM
